Data reported in patent US20220105058A1, “USE OF 3-O-SULFAMATE-16,16-DIMETHYL-D-HOMOEQUILENIN TO TREAT ONCOLOGICAL DISEASES” (priority 2018, published 2022).

How the values were obtained:
[1] = second class: low solubility and high permeability; first class: high solubility and high permeability; cited from earlier work
[2] = release of free hormone; cited from earlier work
[3] = test system: triple negative breast cancer MDA-MB-231 cell line; experiment: cell proliferation in MDA-MB-231; type: cell-based

CC(C)(C#N)c1cc(Cn2cncn2)cc(C(C)(C)C#N)c1 [anastrazole]
class according to the biopharmaceutical classification system (BCS) [1]: first class

C[C@]12CC[C@@H]3c4ccc(OS(N)(=O)=O)cc4CC[C@H]3[C@@H]1CCC2=O [estrone sulfamate]
uterotropic activity [2]: strong uterotropic activity

COc1cc([C@@H]2c3cc4c(cc3[C@@H](O[C@@H]3O[C@@H]5CO[C@@H](C)O[C@H]5[C@H](O)[C@H]3O)[C@H]3COC(=O)[C@H]23)OCO4)cc(OC)c1O [etoposide, reference compound]
inhibition of cell proliferation [3]: similar

N#Cc1ccc(C(c2ccc(C#N)cc2)n2cncn2)cc1 [letrozole]
class according to the biopharmaceutical classification system (BCS) [1]: first class
